Reference: ChEMBL document CHEMBL5360658, “Discovery of MK-8768, a Potent and Selective mGluR2 Negative Allosteric Modulator” (ACS Med Chem Lett, 2023)
In brackets after ≈: the same amount, converted by molar mass.

Key:
[1] = molecular target: Metabotropic glutamate receptor 2 (Homo sapiens, UniProt Q14416); test: Negative allosteric modulation at human mGluR2 receptor stably expressed in DHFR null CHO cells co-expressing Galpha16 assessed as effect on intracellular calcium flux measured after 5 min by Fluo-4AM dye based FLIPR analysis; format: functional, cell-based
Chain of Metabotropic glutamate receptor 2 (Q14416 whole entry): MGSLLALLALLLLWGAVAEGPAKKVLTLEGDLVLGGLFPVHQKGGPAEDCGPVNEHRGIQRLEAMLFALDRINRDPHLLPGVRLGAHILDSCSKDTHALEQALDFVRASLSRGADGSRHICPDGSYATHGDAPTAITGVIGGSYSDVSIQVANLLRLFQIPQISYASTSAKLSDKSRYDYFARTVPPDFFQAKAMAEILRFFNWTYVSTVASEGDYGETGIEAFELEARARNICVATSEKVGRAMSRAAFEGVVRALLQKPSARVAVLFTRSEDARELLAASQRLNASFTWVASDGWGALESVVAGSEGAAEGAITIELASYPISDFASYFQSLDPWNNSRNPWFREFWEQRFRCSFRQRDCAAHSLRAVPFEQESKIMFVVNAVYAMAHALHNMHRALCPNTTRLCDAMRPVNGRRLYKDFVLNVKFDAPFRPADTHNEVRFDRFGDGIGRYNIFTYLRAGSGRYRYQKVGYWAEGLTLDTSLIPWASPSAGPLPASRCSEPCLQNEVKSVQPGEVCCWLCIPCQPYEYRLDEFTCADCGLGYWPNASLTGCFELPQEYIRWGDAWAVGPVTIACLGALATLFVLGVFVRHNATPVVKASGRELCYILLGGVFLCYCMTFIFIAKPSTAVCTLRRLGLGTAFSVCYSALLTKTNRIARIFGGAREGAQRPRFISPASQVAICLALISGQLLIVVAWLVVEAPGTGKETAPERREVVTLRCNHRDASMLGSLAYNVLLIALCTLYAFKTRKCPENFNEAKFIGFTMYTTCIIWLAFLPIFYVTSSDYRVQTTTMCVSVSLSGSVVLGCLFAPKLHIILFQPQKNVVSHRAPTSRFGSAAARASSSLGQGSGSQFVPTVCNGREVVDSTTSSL

[2] = Solubility of the compound at pH 7; format: physicochemical; conditions: buffer
[3] = molecular target: T1, Nuclear receptor subfamily 1 group I member 2 (Homo sapiens, UniProt O75469); test: Agonist activity at PXR (unknown origin)
T1 sequence (O75469 whole entry): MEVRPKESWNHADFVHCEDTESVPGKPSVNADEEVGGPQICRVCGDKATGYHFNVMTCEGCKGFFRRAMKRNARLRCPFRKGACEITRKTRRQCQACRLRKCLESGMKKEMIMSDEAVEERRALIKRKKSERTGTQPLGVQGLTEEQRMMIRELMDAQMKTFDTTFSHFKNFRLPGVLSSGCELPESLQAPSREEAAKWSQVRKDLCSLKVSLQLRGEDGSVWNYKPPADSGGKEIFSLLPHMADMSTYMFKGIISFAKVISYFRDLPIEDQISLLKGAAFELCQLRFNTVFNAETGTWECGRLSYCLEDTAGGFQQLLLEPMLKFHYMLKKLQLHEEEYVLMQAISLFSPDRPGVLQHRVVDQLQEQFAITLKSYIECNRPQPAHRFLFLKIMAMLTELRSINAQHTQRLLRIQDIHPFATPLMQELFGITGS

[4] = molecular target: P-gp (ABCB1) (Rattus norvegicus, UniProt P43245); test: Substrate activity at rat P-gp […] in […] LLC-MDR1 cells assessed as efflux ratio of apparent permeability across basolateral to apical over apical to basolateral side; format: ADME, cell-based, LLC-MDR1 cell; conditions: LLC-PK1
Chain of P-gp (ABCB1) (P43245 whole entry): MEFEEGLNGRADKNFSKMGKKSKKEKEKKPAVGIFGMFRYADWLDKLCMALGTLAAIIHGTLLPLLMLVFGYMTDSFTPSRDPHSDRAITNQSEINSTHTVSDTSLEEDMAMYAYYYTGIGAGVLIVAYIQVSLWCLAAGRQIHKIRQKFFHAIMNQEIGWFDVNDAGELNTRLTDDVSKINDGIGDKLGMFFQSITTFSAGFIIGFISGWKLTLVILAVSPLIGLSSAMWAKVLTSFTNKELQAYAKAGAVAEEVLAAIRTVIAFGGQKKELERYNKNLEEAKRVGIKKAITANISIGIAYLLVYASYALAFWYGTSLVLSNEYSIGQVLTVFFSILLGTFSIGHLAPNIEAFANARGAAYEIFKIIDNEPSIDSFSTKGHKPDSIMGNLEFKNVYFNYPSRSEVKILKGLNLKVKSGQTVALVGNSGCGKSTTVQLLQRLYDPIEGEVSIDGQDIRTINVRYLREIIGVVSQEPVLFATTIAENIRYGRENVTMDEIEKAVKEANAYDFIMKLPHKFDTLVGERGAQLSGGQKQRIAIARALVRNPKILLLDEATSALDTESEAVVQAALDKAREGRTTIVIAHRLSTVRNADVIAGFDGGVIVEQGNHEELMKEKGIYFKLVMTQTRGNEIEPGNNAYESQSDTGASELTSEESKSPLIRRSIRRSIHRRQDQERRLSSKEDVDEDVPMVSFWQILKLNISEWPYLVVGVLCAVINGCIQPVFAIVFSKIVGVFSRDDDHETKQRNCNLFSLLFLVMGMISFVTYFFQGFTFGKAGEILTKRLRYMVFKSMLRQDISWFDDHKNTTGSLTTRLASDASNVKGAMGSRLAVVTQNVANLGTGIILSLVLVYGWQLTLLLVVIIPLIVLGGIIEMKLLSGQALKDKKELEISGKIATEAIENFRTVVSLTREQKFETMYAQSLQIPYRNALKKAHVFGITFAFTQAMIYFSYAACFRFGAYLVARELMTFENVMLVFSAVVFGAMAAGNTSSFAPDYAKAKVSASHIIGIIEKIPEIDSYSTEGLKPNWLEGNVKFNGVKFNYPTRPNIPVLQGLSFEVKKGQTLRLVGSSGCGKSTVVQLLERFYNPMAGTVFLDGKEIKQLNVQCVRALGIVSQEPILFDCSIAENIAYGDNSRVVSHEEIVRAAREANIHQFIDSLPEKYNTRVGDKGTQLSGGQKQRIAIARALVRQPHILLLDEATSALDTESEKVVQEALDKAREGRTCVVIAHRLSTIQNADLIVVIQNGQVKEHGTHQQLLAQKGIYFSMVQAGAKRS

[5] = Apparent permeability in […] LLC-MDR1 cell; format: ADME, cell-based; conditions: LLC-PK1
[6] = molecular target: Voltage-gated inwardly rectifying potassium channel KCNH2 (Homo sapiens, UniProt Q12809); test: Displacement of [35S]-MK-499 from hERG expressed in HEK293 cells […]; format: toxicity, cell-based
Chain of Voltage-gated inwardly rectifying potassium channel KCNH2 (Q12809 whole entry): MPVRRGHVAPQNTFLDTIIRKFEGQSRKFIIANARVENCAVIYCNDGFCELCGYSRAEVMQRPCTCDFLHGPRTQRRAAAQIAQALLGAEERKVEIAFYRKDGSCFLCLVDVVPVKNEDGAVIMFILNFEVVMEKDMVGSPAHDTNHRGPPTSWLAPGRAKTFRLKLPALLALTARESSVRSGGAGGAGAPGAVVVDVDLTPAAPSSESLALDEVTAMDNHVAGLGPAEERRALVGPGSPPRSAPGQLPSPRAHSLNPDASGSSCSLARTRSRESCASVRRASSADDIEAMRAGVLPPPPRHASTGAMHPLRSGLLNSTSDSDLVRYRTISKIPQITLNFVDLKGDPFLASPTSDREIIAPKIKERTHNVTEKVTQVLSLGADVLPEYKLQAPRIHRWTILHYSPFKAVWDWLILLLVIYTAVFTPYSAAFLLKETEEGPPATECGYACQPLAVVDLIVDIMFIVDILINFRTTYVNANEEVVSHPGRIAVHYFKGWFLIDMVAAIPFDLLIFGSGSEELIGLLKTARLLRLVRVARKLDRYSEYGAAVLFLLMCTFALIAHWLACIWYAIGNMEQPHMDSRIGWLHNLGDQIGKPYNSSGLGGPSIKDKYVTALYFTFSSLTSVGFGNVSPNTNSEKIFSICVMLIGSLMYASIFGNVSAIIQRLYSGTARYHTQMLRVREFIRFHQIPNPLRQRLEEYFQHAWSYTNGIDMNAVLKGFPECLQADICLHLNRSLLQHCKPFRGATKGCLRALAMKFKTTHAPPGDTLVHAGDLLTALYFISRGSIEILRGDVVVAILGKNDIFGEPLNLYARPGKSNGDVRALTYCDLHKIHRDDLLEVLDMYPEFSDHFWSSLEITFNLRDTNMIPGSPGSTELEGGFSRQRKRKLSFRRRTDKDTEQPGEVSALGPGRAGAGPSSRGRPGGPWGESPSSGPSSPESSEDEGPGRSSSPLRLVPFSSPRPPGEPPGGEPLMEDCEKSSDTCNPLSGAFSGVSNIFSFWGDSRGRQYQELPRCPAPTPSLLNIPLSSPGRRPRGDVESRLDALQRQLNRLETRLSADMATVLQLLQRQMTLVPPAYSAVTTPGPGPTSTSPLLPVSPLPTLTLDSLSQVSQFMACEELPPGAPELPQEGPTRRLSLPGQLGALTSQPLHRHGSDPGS

[7] = molecular target: T2, PXR (NR1I2) (Homo sapiens, UniProt O75469); test: Agonist activity at PXR (unknown origin) assessed as maximal efficacy at 30 uM
T2 sequence (O75469 whole entry): T1 sequence (O75469 whole entry)

[8] = Oral bioavailability in rat; format: ADME, organism-based; conditions: in vivo
[9] = molecular target: Metabotropic glutamate receptor 3 (Homo sapiens, UniProt Q14832); test: Negative allosteric modulation at mGluR3 receptor (unknown origin) assessed as effect on intracellular calcium flux measured after 5 min by Fluo-4AM dye based FLIPR analysis; format: functional, cell-based
Chain of Metabotropic glutamate receptor 3 (Q14832 whole entry): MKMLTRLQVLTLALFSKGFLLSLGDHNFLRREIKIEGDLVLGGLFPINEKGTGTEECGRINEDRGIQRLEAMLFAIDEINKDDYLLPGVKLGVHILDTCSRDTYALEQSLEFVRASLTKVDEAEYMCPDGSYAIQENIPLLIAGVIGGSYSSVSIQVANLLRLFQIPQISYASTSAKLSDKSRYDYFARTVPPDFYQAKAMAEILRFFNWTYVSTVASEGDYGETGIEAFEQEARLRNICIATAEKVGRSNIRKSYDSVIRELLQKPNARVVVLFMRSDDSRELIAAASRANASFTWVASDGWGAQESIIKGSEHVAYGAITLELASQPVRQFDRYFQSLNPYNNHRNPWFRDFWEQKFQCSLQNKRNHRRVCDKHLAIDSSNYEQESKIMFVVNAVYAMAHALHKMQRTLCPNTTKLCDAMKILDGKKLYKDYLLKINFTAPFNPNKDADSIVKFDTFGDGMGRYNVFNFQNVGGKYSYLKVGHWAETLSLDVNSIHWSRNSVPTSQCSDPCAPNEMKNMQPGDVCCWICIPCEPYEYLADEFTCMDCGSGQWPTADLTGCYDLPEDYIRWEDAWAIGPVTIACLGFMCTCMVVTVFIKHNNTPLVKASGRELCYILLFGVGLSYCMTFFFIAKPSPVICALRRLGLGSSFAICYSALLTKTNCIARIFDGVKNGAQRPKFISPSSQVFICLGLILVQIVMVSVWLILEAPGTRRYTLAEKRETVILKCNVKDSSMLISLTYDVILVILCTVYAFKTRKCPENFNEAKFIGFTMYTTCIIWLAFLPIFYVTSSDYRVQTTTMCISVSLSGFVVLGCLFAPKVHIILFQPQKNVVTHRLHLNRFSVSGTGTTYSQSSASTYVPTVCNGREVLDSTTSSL

[10] = molecular target: Sodium channel protein type 5 subunit alpha (Homo sapiens, UniProt Q14524); test: Inhibition of NaV 1.5 channel (unknown origin) by automated patch-clamp assay
[11] = molecular target: Voltage-dependent L-type calcium channel subunit alpha-1C (Homo sapiens, UniProt Q13936); test: Inhibition of Cav1.2 (unknown origin)
[12] = Oral bioavailability in rat at 20 mg/kg; format: ADME, organism-based; conditions: in vivo

SMILES | solubility ([2]; read-out: solubility) | EC50 [3] | Papp [5] | IC50 [6] | Emax at 30 µM [7] | other results
CC(c1ccc2c(-c3cnn(C)c3)cc(C(N)=O)nc2c1)c1cnn(CC(F)(F)F)c1 (racemic) | 107 µM (≈ 45.8 µg/mL) | 19 µM | 29 ×10⁻⁶ cm/s | 10 µM | 75% | IC50 [1]: 0.011 µM; efflux ratio [4]: 18
Cn1cc(-c2cc(C(N)=O)nc3cc(CN4CCOC(C(F)F)C4)ccc23)cn1 (racemic) | 193 µM (≈ 77.5 µg/mL) |  |  |  |  | IC50 [1]: 0.067 µM
Cc1ncc(CCc2ccc3c(-c4cnn(C)c4)cc(C(N)=O)nc3c2)cn1 | 141 µM (≈ 52.5 µg/mL) |  | 30 ×10⁻⁶ cm/s | > 60 µM |  | 
CC1CC=C(c2cc(C(N)=O)nc3cc(CN4C(=O)CCC4=O)ccc23)CC1 (racemic) | < 1 µM | 0.6 µM | 33 ×10⁻⁶ cm/s | 27 µM | 115% | 
Cn1cc(-c2cc(C(N)=O)nc3cc(CN4CCOC(C(F)(F)F)C4)ccc23)cn1 (racemic) | 132 µM (≈ 55.4 µg/mL) |  | 30 ×10⁻⁶ cm/s | 19 µM |  | 
COC1CC=C(c2cc(C(N)=O)nc3cc(CN4C(=O)CCC4=O)ccc23)CC1 (racemic) | 125 µM (≈ 49.2 µg/mL) |  | 32 ×10⁻⁶ cm/s | > 60 µM |  | 
CC(C)C1CN(Cc2ccc3c(-c4cnn(C)c4)cc(C(N)=O)nc3c2)CCO1 (racemic) | 142 µM (≈ 55.9 µg/mL) | 29 µM | 34 ×10⁻⁶ cm/s | 23 µM | 51% | IC50 [1]: 0.023 µM; efflux ratio [4]: 1.3
Cn1cc(-c2cc(C(N)=O)nc3cc(CN4CCOC(C5CC5)C4)ccc23)cn1 (racemic) | 175 µM (≈ 68.5 µg/mL) |  | 29 ×10⁻⁶ cm/s | 51 µM |  | IC50 [1]: 0.032 µM
Cn1cc(Cc2ccc3c(-c4ccc(F)cc4)cc(C(N)=O)nc3c2)cn1 | 4 µM (≈ 1.44 µg/mL) | > 30 µM | 31 ×10⁻⁶ cm/s | 3.5 µM | 21% | 
NC(=O)c1cc(-c2ccc(F)cc2)c2ccc(CN3CCOC(C(F)(F)F)C3)cc2n1 (racemic) | 2 µM (≈ 0.867 µg/mL) |  | 24 ×10⁻⁶ cm/s | 5.5 µM |  | 
Cn1cc(-c2cc(C(N)=O)nc3cc(CN4C(=O)CCC4=O)ccc23)cn1 | 162 µM (≈ 58.9 µg/mL) |  | 30 ×10⁻⁶ cm/s |  |  | 
Cc1cnn(-c2cc(C(N)=O)nc3cc(CN4C(=O)CCC4=O)ccc23)c1 | 99 µM (≈ 36 µg/mL) | > 30 µM |  |  | 54% | 
NC(=O)c1cc(-c2ccc(F)cc2)c2ccc(CN3C(=O)CCC3=O)cc2n1 |  |  |  |  |  | solubility [2]: 4 µM (≈ 1.51 µg/mL); bioavailability [8]: 100%
CN(C)C(=O)C(C)(C)c1ccc2c(-c3ccc(F)cc3)cc(C(N)=O)nc2c1 | < 2 µM | 3.5 µM | 38 ×10⁻⁶ cm/s | 40 µM | 110% | 
Cn1ccc(CCc2ccc3c(-c4ccc(F)cc4)cc(C(N)=O)nc3c2)n1 | < 1 µM | 9.2 µM | 25 ×10⁻⁶ cm/s | 2.9 µM | 97% | 
Cc1ccn(-c2cc(C(N)=O)nc3cc(CN4C(=O)CCC4=O)ccc23)n1 | 46 µM (≈ 16.7 µg/mL) |  | 30 ×10⁻⁶ cm/s | > 60 µM |  | IC50 [1]: > 5 µM; efflux ratio [4]: 18
NC(=O)c1cc(-c2ccc(F)cc2)c2ccc(CCc3cncnc3)cc2n1 | < 1 µM | > 30 µM | 31 ×10⁻⁶ cm/s | > 60 µM | 47% | 
CC1CCN(c2cc(C(N)=O)nc3cc(CN4C(=O)CCC4=O)ccc23)CC1 | < 2 µM |  |  |  |  | 

SMILES | solubility ([2]; read-out: solubility) | EC50 [3] | Papp [5] | IC50 [6] | Emax at 30 µM [7] | other results
Cc1ncc(NCc2ccc3c(-c4ccc(F)cc4)cc(C(N)=O)nc3c2)cn1 | 7 µM (≈ 2.71 µg/mL) | > 30 µM | 31 ×10⁻⁶ cm/s | 6.2 µM | 1% | 
Cc1cnn(Cc2ccc3c(-c4ccc(F)cc4)cc(C(N)=O)nc3c2)c1 | < 2 µM | 16.7 µM | 27 ×10⁻⁶ cm/s | 1.9 µM | 53% | 
CC1CN(Cc2ccc3c(-c4ccc(F)cc4)cc(C(N)=O)nc3c2)CCO1 (racemic) | 103 µM (≈ 39.1 µg/mL) | > 30 µM |  | 5.5 µM | 26% | 
Cn1cc(Cc2ccc3c(-c4cnn(C)c4)cc(C(N)=O)nc3c2)cn1 | 105 µM (≈ 36.4 µg/mL) |  | 36 ×10⁻⁶ cm/s | > 60 µM |  | 
NC(=O)c1cc(-c2ccc(F)cc2)c2ccc(CN3CCNC(C(F)(F)F)C3)cc2n1 (racemic) | 105 µM (≈ 45.4 µg/mL) |  | 27 ×10⁻⁶ cm/s | 11.2 µM |  | 
CC1CN(Cc2ccc3c(-c4cnn(C)c4)cc(C(N)=O)nc3c2)CCO1 (racemic) | 175 µM (≈ 64 µg/mL) | > 30 µM |  | > 60 µM | 1% | 
CC(C)(C(=O)N1CCOCC1)c1ccc2c(-c3ccc(F)cc3)cc(C(N)=O)nc2c1 | 143 µM (≈ 60.3 µg/mL) |  | 32 ×10⁻⁶ cm/s | 20.6 µM |  | 
CCn1cc(-c2cc(C(N)=O)nc3cc(CN4C(=O)CCC4=O)ccc23)cn1 | 150 µM (≈ 56.6 µg/mL) |  | 24 ×10⁻⁶ cm/s | 27 µM |  | 
CN1CC=C(c2cc(C(N)=O)nc3cc(CN4C(=O)CCC4=O)ccc23)CC1 | 203 µM (≈ 76.8 µg/mL) |  | 38 ×10⁻⁶ cm/s |  |  | IC50 [1]: 4.03 µM; efflux ratio [4]: 19
Cc1ncc(-c2cc(C(N)=O)nc3cc(CN4C(=O)CCC4=O)ccc23)s1 | 64 µM (≈ 24.3 µg/mL) | 6 µM |  | > 60 µM | 137% | 
Cc1cc(NCc2ccc3c(-c4ccc(F)cc4)cc(C(N)=O)nc3c2)no1 | 3 µM (≈ 1.13 µg/mL) | > 30 µM | 30 ×10⁻⁶ cm/s | 3.3 µM | 49% | 
NC(=O)c1cc(-c2ccc(F)cc2)c2ccc(CNCC(F)(F)F)cc2n1 | 6 µM (≈ 2.26 µg/mL) | > 30 µM | 24 ×10⁻⁶ cm/s | 10.2 µM | 50% | 
Cn1cc(-c2cc(C(N)=O)nc3cc(CN4CCO[C@@H](C(F)(F)F)C4)ccc23)cn1 | 142 µM (≈ 59.6 µg/mL) |  | 29 ×10⁻⁶ cm/s | > 60 µM |  | IC50 [9]: 7.8 µM; IC50 [10]: > 30 µM; IC50 [11]: 22 µM; bioavailability [12]: 100%
NC(=O)c1cc(-c2ccc(F)cc2)c2ccc(C(N3CCOCC3)C(F)(F)F)cc2n1 (racemic) | < 2 µM |  | 28 ×10⁻⁶ cm/s | 11.2 µM |  | IC50 [1]: 0.041 µM
NC(=O)c1cc(-c2ccc(F)cc2)c2ccc(CN3CCOC3=O)cc2n1 | 127 µM (≈ 46.4 µg/mL) | 9.7 µM | 36 ×10⁻⁶ cm/s | 14 µM | 95% | 
Cn1cc(-c2cc(C(N)=O)nc3cc(CN4CCNC(C(F)(F)F)C4)ccc23)cn1 (racemic) | 175 µM (≈ 73.2 µg/mL) |  | 29 ×10⁻⁶ cm/s | > 20 µM |  | IC50 [1]: 0.122 µM
NC(=O)c1cc(N2CCOCC2)c2ccc(CN3C(=O)CCC3=O)cc2n1 | 157 µM (≈ 57.8 µg/mL) |  | 35 ×10⁻⁶ cm/s | 17 µM |  | 
